Measurements taken from PubChem BioAssay AID2060355 (Molecular Pharmacology Branch, DTP, NCI, 2025).
Where “and” joins values, the source holds several entries; their conditions need not be identical. Equal values may be shown once.

System: 485368-065-R4-J2-PDC spheroids with HUVEC/MSC, viability
Test: Anticancer human tumor 485368-065-R4-J2-PDC patient-derived pancreatic carcinoma cell line growth inhibition [TAK]
Conditions: for viability, T/C: stronger effect = lower value
How it was run: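 Spheroids of 60% malignant cells, 25% HUVEC and 15% hMSC were exposed to targeted agents combined with TAK-243 or ipatasertib. Concentrations started at or near clinical Cmax (10 microM if unknown) and descended in half-log steps.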

[1] = curve of first compound, second compound 0.3 µM
[2] = curve of first compound, second compound 0.949 µM
[3] = curve of first compound, second compound 3 µM
[4] = curve of first compound, second compound 9.49 µM
[5] = curve of first compound, second compound 30 µM
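Also: spheroids exposed to compounds for seven days before readout.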
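For viability, T/C in this document: 100% = DMSO vehicle control wells.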

In the case of `CC(=O)Nc1cccc(-n2c(=O)n(C3CC3)c(=O)c3c(Nc4ccc(I)cc4F)n(C)c(=O)c(C)c32)c1` + CC(C)NCC(C(=O)N1CCN(c2ncnc3c2C(C)CC3O)CC1)c1ccc(Cl)cc1, the IC50 [1] is reported as 3.49 nM, the IC50 [2] is reported as 1.61 nM and the IC50 [3] is reported as 1.23 nM. It also gave an IC50 [4] of 0.596 nM, an IC50 [5] of 0.316 nM and a viability, T/C (second compound 0.3 µM, first compound 94.9 pM) of 89.9%. It also gave a viability, T/C (second compound 0.3 µM, first compound 0.0003 µM) of 76.2%, a viability, T/C (second compound 0.3 µM, first compound 0.000949 µM) of 72.8% and a viability, T/C (second compound 0.3 µM, first compound 0.003 µM) of 51.8%. The viability, T/C (second compound 0.3 µM, first compound 0.00949 µM) was 33.5%, the viability, T/C (second compound 0.3 µM, first compound 0.03 µM) was 20.4% and the viability, T/C (second compound 0.949 µM, first compound 94.9 pM) was 94.2%. It also gave a viability, T/C (second compound 0.949 µM, first compound 0.0003 µM) of 92.3%, a viability, T/C (second compound 0.949 µM, first compound 0.000949 µM) of 61.8% and a viability, T/C (second compound 0.949 µM, first compound 0.003 µM) of 34.3%. It also gave a viability, T/C (second compound 0.949 µM, first compound 0.00949 µM) of 19.2%, a viability, T/C (second compound 0.949 µM, first compound 0.03 µM) of 12.7% and a viability, T/C (second compound 3 µM, first compound 94.9 pM) of 96.6%. For the same molecule, the viability, T/C (second compound 3 µM, first compound 0.0003 µM) was 88.2%, the viability, T/C (second compound 3 µM, first compound 0.000949 µM) was 58.3% and the viability, T/C (second compound 3 µM, first compound 0.003 µM) was 22%. For the same molecule, the viability, T/C (second compound 3 µM, first compound 0.00949 µM) was 12%, the viability, T/C (second compound 3 µM, first compound 0.03 µM) was 8.82% and the viability, T/C (second compound 9.49 µM, first compound 94.9 pM) was 89.8%. For the same molecule, the viability, T/C (second compound 9.49 µM, first compound 0.0003 µM) was 70.1%, the viability, T/C (second compound 9.49 µM, first compound 0.000949 µM) was 36.3% and the viability, T/C (second compound 9.49 µM, first compound 0.003 µM) was 15.8%. It also gave a viability, T/C (second compound 9.49 µM, first compound 0.00949 µM) of 10.2%, a viability, T/C (second compound 9.49 µM, first compound 0.03 µM) of 7.89% and a viability, T/C (second compound 30 µM, first compound 94.9 pM) of 70.6%. The viability, T/C (second compound 30 µM, first compound 0.0003 µM) was 50%, the viability, T/C (second compound 30 µM, first compound 0.000949 µM) was 31.5% and the viability, T/C (second compound 30 µM, first compound 0.003 µM) was 13.8%. The viability, T/C (second compound 30 µM, first compound 0.00949 µM) was 10.2% and the viability, T/C (second compound 30 µM, first compound 0.03 µM) was 7.05%.
For `CCCS(=O)(=O)Nc1ccc(F)c(C(=O)c2c[nH]c3ncc(-c4ccc(Cl)cc4)cc23)c1F`, the viability, T/C (compound 0.316 µM) was 110% and 92.4%, the viability, T/C (compound 1 µM) was 102% and 117% and the viability, T/C (compound 3.16 µM) was 89.2% and 101%. The viability, T/C (compound 10 µM) was 43.3% and 56.3%, the viability, T/C (compound 31.6 µM) was 99.8% and 46.6% and the viability, T/C (compound 100 µM) was 91.2% and 106%. It also gave an IC50 (curve of compound) of over 100000 nM.
For `CC(C)CC(NC(=O)C(Cc1ccccc1)NC(=O)c1cnccn1)B(O)O` (stereo not drawn) + CC(C)NCC(C(=O)N1CCN(c2ncnc3c2C(C)CC3O)CC1)c1ccc(Cl)cc1, the IC50 [1] was 5.9 nM, the IC50 [2] was 5.92 nM and the IC50 [3] was 5.94 nM. For the same molecule, the IC50 [4] was 5.13 nM, the IC50 [5] was 4.63 nM and the viability, T/C (second compound 0.3 µM, first compound 31.6 pM) was 98.2%. The viability, T/C (second compound 0.3 µM, first compound 0.0001 µM) was 96.9%, the viability, T/C (second compound 0.3 µM, first compound 0.000316 µM) was 90.6% and the viability, T/C (second compound 0.3 µM, first compound 0.001 µM) was 92.2%. For the same molecule, the viability, T/C (second compound 0.3 µM, first compound 0.00316 µM) was 108%, the viability, T/C (second compound 0.3 µM, first compound 0.01 µM) was 10% and the viability, T/C (second compound 0.949 µM, first compound 31.6 pM) was 94.5%. The viability, T/C (second compound 0.949 µM, first compound 0.0001 µM) was 94.3%, the viability, T/C (second compound 0.949 µM, first compound 0.000316 µM) was 103% and the viability, T/C (second compound 0.949 µM, first compound 0.001 µM) was 98.4%. The viability, T/C (second compound 0.949 µM, first compound 0.00316 µM) was 102%, the viability, T/C (second compound 0.949 µM, first compound 0.01 µM) was 9.62% and the viability, T/C (second compound 3 µM, first compound 31.6 pM) was 94.3%. It also gave a viability, T/C (second compound 3 µM, first compound 0.0001 µM) of 101%, a viability, T/C (second compound 3 µM, first compound 0.000316 µM) of 98.5% and a viability, T/C (second compound 3 µM, first compound 0.001 µM) of 92.2%. It also gave a viability, T/C (second compound 3 µM, first compound 0.00316 µM) of 94.9%, a viability, T/C (second compound 3 µM, first compound 0.01 µM) of 12.9% and a viability, T/C (second compound 9.49 µM, first compound 31.6 pM) of 97%. The viability, T/C (second compound 9.49 µM, first compound 0.0001 µM) was 94.2%, the viability, T/C (second compound 9.49 µM, first compound 0.000316 µM) was 91.1% and the viability, T/C (second compound 9.49 µM, first compound 0.001 µM) was 95.2%. For the same molecule, the viability, T/C (second compound 9.49 µM, first compound 0.00316 µM) was 79.7%, the viability, T/C (second compound 9.49 µM, first compound 0.01 µM) was 8.65% and the viability, T/C (second compound 30 µM, first compound 31.6 pM) was 78.5%. The viability, T/C (second compound 30 µM, first compound 0.0001 µM) was 81.9%, the viability, T/C (second compound 30 µM, first compound 0.000316 µM) was 77.6% and the viability, T/C (second compound 30 µM, first compound 0.001 µM) was 78%. For the same molecule, the viability, T/C (second compound 30 µM, first compound 0.00316 µM) was 71.2% and the viability, T/C (second compound 30 µM, first compound 0.01 µM) was 6.97%.
With `Cn1cnc2c(F)c(Nc3ccc(Br)cc3Cl)c(C(=O)NOCCO)cc21` the viability, T/C (compound 0.00949 µM) was 70.9% and 67.5%, the viability, T/C (compound 0.03 µM) was 68.9% and 66.8% and the viability, T/C (compound 0.0949 µM) was 76.3% and 60.8%. For the same molecule, the viability, T/C (compound 0.3 µM) was 64.8% and 51%, the viability, T/C (compound 0.949 µM) was 54.1% and 43.5% and the viability, T/C (compound 3 µM) was 36.9% and 30.2%. The IC50 (curve of compound) was 1220 nM and 405 nM.
In the case of `CC(C)NCC(C(=O)N1CCN(c2ncnc3c2C(C)CC3O)CC1)c1ccc(Cl)cc1` (stereo not drawn), the viability, T/C (compound 0.3 µM) is reported as 95.9% [middle of 10 runs], the viability, T/C (compound 0.949 µM) is reported as 94.7% [middle of 10 runs] and the viability, T/C (compound 3 µM) is reported as 99.1% [middle of 10 runs]. The viability, T/C (compound 9.49 µM) was 91.6% [middle of 10 runs], the viability, T/C (compound 30 µM) was 78% [middle of 10 runs] and the IC50 (compound alone, run of 02/20/2020) was over 30000 nM.
With `CC(C)(C)c1nc(-c2cccc(NS(=O)(=O)c3c(F)cccc3F)c2F)c(-c2ccnc(N)n2)s1` the viability, T/C (compound 0.0316 µM) was 111% and 113%, the viability, T/C (compound 0.1 µM) was 101% and 105% and the viability, T/C (compound 0.316 µM) was 84.3% and 89.6%. The viability, T/C (compound 1 µM) was 57.7% and 75.8%, the viability, T/C (compound 3.16 µM) was 57% and 60.5% and the viability, T/C (compound 10 µM) was 49.8% and 54.4%. For the same molecule, the IC50 (curve of compound) was over 10000 nM.
With `Cc1nc(NC(=O)N2CCCC2C(N)=O)sc1-c1ccnc(C(C)(C)C(F)(F)F)c1` (stereo not drawn) the viability, T/C (compound 0.0316 µM) was 100% and 99.2%, the viability, T/C (compound 0.1 µM) was 92.8% and 93% and the viability, T/C (compound 0.316 µM) was 81.5% and 77.7%. For the same molecule, the viability, T/C (compound 1 µM) was 81.9% and 78.4%, the viability, T/C (compound 3.16 µM) was 73.4% and 71.8% and the viability, T/C (compound 10 µM) was 51% and 48.5%. The IC50 (curve of compound) was over 10000 nM.
For `CC(C)CC(NC(=O)C(Cc1ccccc1)NC(=O)c1cnccn1)B(O)O` (stereo not drawn), the viability, T/C (compound 31.6 pM) was 108% and 103%, the viability, T/C (compound 0.0001 µM) was 101% and the viability, T/C (compound 0.000316 µM) was 96.3% and 89.7%. For the same molecule, the viability, T/C (compound 0.001 µM) was 99% and 102%, the viability, T/C (compound 0.00316 µM) was 107% and 114% and the viability, T/C (compound 0.01 µM) was 9.55% and 6.03%. For the same molecule, the IC50 (curve of compound) was 6.05 nM and 5.9 nM.
In the case of `COC1CC2CCC(C)C(O)(O2)C(=O)C(=O)N2CCCCC2C(=O)OC(C(C)CC2CCC(OCCO)C(OC)C2)CC(=O)C(C)C=C(C)C(O)C(OC)C(=O)C(C)CC(C)C=CC=CC=C1C` (stereo not drawn), the viability, T/C (compound 0.000316 µM) is reported as 89.3% and 76.4%, the viability, T/C (compound 0.001 µM) is reported as 95.4% and 82.8% and the viability, T/C (compound 0.00316 µM) is reported as 91.1% and 89.1%. The viability, T/C (compound 0.01 µM) was 92.2% and 96.3%, the viability, T/C (compound 0.0316 µM) was 92.8% and 90.3% and the viability, T/C (compound 0.1 µM) was 88.8% and 86.1%. It also gave an IC50 (curve of compound) of over 100 nM.
